Source: article PMC5218480 (PLoS ONE, 2017)

Test system: MV-4-11 cells
Experiment: Gene expression microarray analysis (Affymetrix PrimeView) and GSEA
Assay type: cell-based, human
Parameters: RFU PODN (11730768_x_at) / Fold change /veh PODN (11730768_x_at) / RFU LINC00158 (11744669_a_at) / Fold change /veh LINC00158 (11744669_a_at) / RFU DUSP10 (11751237_a_at) / Fold change /veh DUSP10 (11751237_a_at) / RFU ID3 (11757404_x_at) / Fold change /veh ID3 (11757404_x_at) / RFU PLEKHG5 (11737974_s_at) / Fold change /veh PLEKHG5 (11737974_s_at) / RFU LRRC4B (11730491_at) / Fold change /veh LRRC4B (11730491_at) / RFU GIMAP4 (11747438_a_at) / Fold change /veh GIMAP4 (11747438_a_at) / RFU KRT8 (11758183_x_at) / Fold change /veh KRT8 (11758183_x_at) / RFU CNN1 (11734310_a_at) / Fold change /veh CNN1 (11734310_a_at) / RFU VPS37D (11726825_at) / Fold change /veh VPS37D (11726825_at) / RFU C10orf10 (11716522_x_at) / Fold change /veh C10orf10 (11716522_x_at) / RFU KIR2DL2 /// KIR2DL4 /// KIR2DL5A /// KIR2DL5B /// KIR2DS1 /// KIR2DS2 /// KIR2DS3 /// KIR2DS4 /// KIR3DL3 /// KIR3DL3 /// KIR3DS1 (11738374_at) / Fold change /veh KIR2DL2 /// KIR2DL4 /// KIR2DL5A /// KIR2DL5B /// KIR2DS1 /// KIR2DS2 /// KIR2DS3 /// KIR2DS4 /// KIR3DL3 /// KIR3DL3 /// KIR3DS1 (11738374_at) / RFU C1QL1 (11718748_at) / Fold change /veh C1QL1 (11718748_at) / RFU TMPRSS4 (11747572_a_at) / Fold change /veh TMPRSS4 (11747572_a_at) / RFU HAMP (11756126_x_at) / Fold change /veh HAMP (11756126_x_at) / RFU RNFT2 (11725882_a_at) / Fold change /veh RNFT2 (11725882_a_at) / RFU NR4A2 (11747474_a_at) / Fold change /veh NR4A2 (11747474_a_at) / RFU ABCC12 (11746883_a_at) / Fold change /veh ABCC12 (11746883_a_at) / RFU TMEM136 (11760407_x_at) / Fold change /veh TMEM136 (11760407_x_at) / RFU CLDN22 /// WWC2 (11732394_at) / Fold change /veh CLDN22 /// WWC2 (11732394_at) / RFU HLA-DPB1 (11760878_x_at) / Fold change /veh HLA-DPB1 (11760878_x_at) / RFU SPINT1 (11716480_a_at) / Fold change /veh SPINT1 (11716480_a_at) / RFU GAP43 (11754022_s_at) / Fold change /veh GAP43 (11754022_s_at) / RFU A4GNT (11735810_at) / Fold change /veh A4GNT (11735810_at) / RFU PRB3 (11715151_x_at) / Fold change /veh PRB3 (11715151_x_at) / RFU TUBB4B (11761932_at) / Fold change /veh TUBB4B (11761932_at) / RFU CAPN14 (11732068_a_at) / Fold change /veh CAPN14 (11732068_a_at) / RFU TMCC2 (11721928_a_at) / Fold change /veh TMCC2 (11721928_a_at) / RFU IRGQ (11745062_a_at) / Fold change /veh IRGQ (11745062_a_at) / RFU FAM174B (11720279_a_at) / Fold change /veh FAM174B (11720279_a_at) / RFU TMPRSS4 (11748680_a_at) / Fold change /veh TMPRSS4 (11748680_a_at) / RFU FAM212B (11763350_a_at) / Fold change /veh FAM212B (11763350_a_at) / RFU PLEKHG5 (11743358_a_at) / Fold change /veh PLEKHG5 (11743358_a_at) / RFU ZSCAN30 (11745921_a_at) / Fold change /veh ZSCAN30 (11745921_a_at) / RFU CMKLR1 (11741424_a_at) / Fold change /veh CMKLR1 (11741424_a_at) / RFU LOC101060620 /// MAPK8IP1 (11723275_at) / Fold change /veh LOC101060620 /// MAPK8IP1 (11723275_at) / RFU SPTSSB (11747773_x_at) / Fold change /veh SPTSSB (11747773_x_at) / RFU PRSS12 (11739890_at) / Fold change /veh PRSS12 (11739890_at) / RFU BIN1 (11741810_x_at) / Fold change /veh BIN1 (11741810_x_at) / RFU WNT11 (11732464_a_at) / Fold change /veh WNT11 (11732464_a_at) / RFU C10orf10 (11716521_a_at) / Fold change /veh C10orf10 (11716521_a_at) / RFU C5orf56 (11738089_at) / Fold change /veh C5orf56 (11738089_at) / RFU CYB561 (11721691_x_at) / Fold change /veh CYB561 (11721691_x_at) / RFU ANKRD19P (11752326_a_at) / Fold change /veh ANKRD19P (11752326_a_at) / RFU OR2T12 /// OR2T33 /// OR2T8 (11738714_s_at) / Fold change /veh OR2T12 /// OR2T33 /// OR2T8 (11738714_s_at) / RFU VCAN (11748164_a_at) / Fold change /veh VCAN (11748164_a_at) / RFU JSRP1 (11732532_at) / Fold change /veh JSRP1 (11732532_at) / RFU KRTAP10-11 (11738290_x_at) / Fold change /veh KRTAP10-11 (11738290_x_at) / RFU MYO3A (11730013_a_at) / Fold change /veh MYO3A (11730013_a_at) / RFU EBF3 (11725865_a_at) / Fold change /veh EBF3 (11725865_a_at) / RFU CAMK2N1 (11719241_x_at) / Fold change /veh CAMK2N1 (11719241_x_at) / RFU C5orf56 (11738088_a_at) / Fold change /veh C5orf56 (11738088_a_at) / RFU OLFML3 (11715873_a_at) / Fold change /veh OLFML3 (11715873_a_at) / RFU LOC100653217 /// NTM (11731650_a_at) / Fold change /veh LOC100653217 /// NTM (11731650_a_at) / RFU MAPK11 (11762145_a_at) / Fold change /veh MAPK11 (11762145_a_at) / RFU FIZ1 (11724087_x_at) / Fold change /veh FIZ1 (11724087_x_at) / RFU OASL (11726364_x_at) / Fold change /veh OASL (11726364_x_at) / RFU SOX15 (11748057_x_at) / Fold change /veh SOX15 (11748057_x_at) / RFU CD79A (11719716_a_at) / Fold change /veh CD79A (11719716_a_at) / RFU HIST1H1D (11736915_at) / Fold change /veh HIST1H1D (11736915_at) / RFU CASKIN2 (11723855_a_at) / Fold change /veh CASKIN2 (11723855_a_at) / RFU LOC730098 (11760151_x_at) / Fold change /veh LOC730098 (11760151_x_at) / RFU OR4N2 (11742367_at) / Fold change /veh OR4N2 (11742367_at) / RFU PRRT2 (11749266_a_at) / Fold change /veh PRRT2 (11749266_a_at) / RFU SNX32 (11753110_a_at) / Fold change /veh SNX32 (11753110_a_at) / RFU CDHR5 (11726645_a_at) / Fold change /veh CDHR5 (11726645_a_at) / RFU RCAN1 (11760418_a_at) / Fold change /veh RCAN1 (11760418_a_at) / RFU FAM167A (11723789_a_at) / Fold change /veh FAM167A (11723789_a_at) / RFU FAM26E (11764081_at) / Fold change /veh FAM26E (11764081_at) / RFU ISYNA1 (11749810_s_at) / Fold change /veh ISYNA1 (11749810_s_at) / RFU ACY1 (11761880_at) / Fold change /veh ACY1 (11761880_at) / RFU 11764098_at / Fold change /veh 11764098_at / RFU SAMD14 (11745864_x_at) / Fold change /veh SAMD14 (11745864_x_at) / RFU NPB (11741838_a_at) / Fold change /veh NPB (11741838_a_at) / RFU TMPRSS6 (11731388_a_at) / Fold change /veh TMPRSS6 (11731388_a_at) / RFU KRTAP10-2 (11738614_at) / Fold change /veh KRTAP10-2 (11738614_at) / RFU ARHGAP8 /// PRR5-ARHGAP8 (11727945_x_at) / Fold change /veh ARHGAP8 /// PRR5-ARHGAP8 (11727945_x_at) / RFU KRTAP5-7 /// NADSYN1 (11734609_at) / Fold change /veh KRTAP5-7 /// NADSYN1 (11734609_at) / RFU RASL12 (11751679_a_at) / Fold change /veh RASL12 (11751679_a_at) / RFU CDKN2B (11736163_a_at) / Fold change /veh CDKN2B (11736163_a_at) / RFU PRF1 (11729649_at) / Fold change /veh PRF1 (11729649_at) / RFU, ZNF638 /// ZNF638-IT1 / Fold change vs veh, ZNF638 /// ZNF638-IT1 / RFU, PANK3 / Fold change vs veh, PANK3 / RFU, SH3YL1 / Fold change vs veh, SH3YL1 / RFU, ZEB2 / Fold change vs veh, ZEB2 / RFU, NRIP1 / Fold change vs veh, NRIP1 / RFU, PTTG1IP / Fold change vs veh, PTTG1IP / RFU, CAPN2 / Fold change vs veh, CAPN2 / RFU, MED14 / Fold change vs veh, MED14 / RFU, SNORA58 / Fold change vs veh, SNORA58 / RFU, C1orf63 / Fold change vs veh, C1orf63 / RFU, LRRFIP1 / Fold change vs veh, LRRFIP1 / RFU, NDUFAF7 / Fold change vs veh, NDUFAF7 / RFU, SLC12A2 / Fold change vs veh, SLC12A2 / RFU, IBTK / Fold change vs veh, IBTK / RFU, ESF1 / Fold change vs veh, ESF1 / Fold change vs veh, TMEM50B / RFU, TAOK1 / Fold change vs veh, TAOK1 / RFU, ACBD3 / Fold change vs veh, ACBD3 / RFU, TMA16 / Fold change vs veh, TMA16 / RFU, RWDD3 / Fold change vs veh, RWDD3 / RFU, BCAT1 / Fold change vs veh, BCAT1 / RFU, EDEM3 / Fold change vs veh, EDEM3 / RFU, TMEM33 / Fold change vs veh, TMEM33 / RFU, WDR75 / Fold change vs veh, WDR75 / RFU, AHCTF1 / Fold change vs veh, AHCTF1 / RFU, TFRC / Fold change vs veh, TFRC / RFU, ZDHHC17 / Fold change vs veh, ZDHHC17 / RFU, NOM1 / Fold change vs veh, NOM1 / RFU, ARL8B / Fold change vs veh, ARL8B / RFU, ZBTB11 / Fold change vs veh, ZBTB11 / RFU, TAMM41 / Fold change vs veh, TAMM41 / RFU, KIAA1704 /// LOC100996395 / Fold change vs veh, KIAA1704 /// LOC100996395 / RFU, ING1 / Fold change vs veh, ING1 / RFU, TRMT61B / Fold change vs veh, TRMT61B / RFU, FUBP3 / Fold change vs veh, FUBP3 / RFU, TP53 / Fold change vs veh, TP53 / RFU, TNKS2 / Fold change vs veh, TNKS2 / RFU, ZFP14 / Fold change vs veh, ZFP14 / RFU, ACTR2 / Fold change vs veh, ACTR2 / RFU, PPP3R1 / Fold change vs veh, PPP3R1 / RFU, PIK3R1 / Fold change vs veh, PIK3R1 / RFU, HNRNPA1 / Fold change vs veh, HNRNPA1 / RFU, RNF170 / Fold change vs veh, RNF170 / RFU, ZNF28 / Fold change vs veh, ZNF28 / RFU, RNGTT / Fold change vs veh, RNGTT / RFU, OGT / Fold change vs veh, OGT / RFU, BRD1 / Fold change vs veh, BRD1 / RFU, MARS / Fold change vs veh, MARS / RFU, ZNF655 / Fold change vs veh, ZNF655 / RFU, FAHD1 / Fold change vs veh, FAHD1 / RFU, BDP1 / Fold change vs veh, BDP1 / RFU, LRRCC1 / Fold change vs veh, LRRCC1 / RFU, ARID1A / Fold change vs veh, ARID1A / RFU, ZNF146 / Fold change vs veh, ZNF146 / RFU, ZNF330 / Fold change vs veh, ZNF330 / RFU, GPN3 / Fold change vs veh, GPN3 / RFU, C9orf123 / Fold change vs veh, C9orf123 / RFU, N4BP2L2 / Fold change vs veh, N4BP2L2 / RFU, ARFIP1 / Fold change vs veh, ARFIP1 / RFU, FAM179B / Fold change vs veh, FAM179B / RFU, BCL10 / Fold change vs veh, BCL10 / RFU, UHRF1BP1L / Fold change vs veh, UHRF1BP1L / RFU, BET1 / Fold change vs veh, BET1 / RFU, CNOT2 / Fold change vs veh, CNOT2 / RFU, ZNF268 / Fold change vs veh, ZNF268 / Fold change vs veh, ZNF507 / RFU, DGCR2 / Fold change vs veh, DGCR2 / RFU, WDSUB1 / Fold change vs veh, WDSUB1 / Fold change vs veh, HSP90B1 /// MIR3652 / RFU, ADSS / Fold change vs veh, ADSS / RFU, GK / Fold change vs veh, GK / RFU, ZNF148 / Fold change vs veh, ZNF148 / RFU, TAF9 / Fold change vs veh, TAF9 / RFU, SLC1A5 / Fold change vs veh, SLC1A5 / RFU, SLMO2 / Fold change vs veh, SLMO2 / RFU, ABCC4 / Fold change vs veh, ABCC4 / RFU, LOC101060439 /// RAP1B / Fold change vs veh, LOC101060439 /// RAP1B / RFU, RFX7 / Fold change vs veh, RFX7 / RFU, GTPBP10 / Fold change vs veh, GTPBP10 / RFU, CNEP1R1 / Fold change vs veh, CNEP1R1 / RFU, BIVM-ERCC5 /// ERCC5 / Fold change vs veh, BIVM-ERCC5 /// ERCC5 / RFU, ILF3 / Fold change vs veh, ILF3 / RFU 11762660_at / Fold change /veh 11762660_at / RFU VCAN (11757783_s_at) / Fold change /veh VCAN (11757783_s_at) / RFU DDX43 (11728927_at) / Fold change /veh DDX43 (11728927_at) / RFU KRT8 (11758188_x_at) / Fold change /veh KRT8 (11758188_x_at) / RFU NKD1 (11759106_at) / Fold change /veh NKD1 (11759106_at) / RFU SRD5A1 (11742802_a_at) / Fold change /veh SRD5A1 (11742802_a_at) / RFU TPSAB1 /// TPSB2 (11721975_s_at) / Fold change /veh TPSAB1 /// TPSB2 (11721975_s_at) / RFU GSTM3 (11746129_a_at) / Fold change /veh GSTM3 (11746129_a_at) / RFU IL23R (11737362_x_at) / Fold change /veh IL23R (11737362_x_at) / RFU TMEM51 (11727254_a_at) / Fold change /veh TMEM51 (11727254_a_at) / RFU PIWIL2 (11732686_x_at) / Fold change /veh PIWIL2 (11732686_x_at) / RFU ORM1 (11744905_x_at) / Fold change /veh ORM1 (11744905_x_at) / RFU CCDC152 (11743942_at) / Fold change /veh CCDC152 (11743942_at) / RFU ECM1 (11717891_a_at) / Fold change /veh ECM1 (11717891_a_at) / RFU IL23R (11748794_a_at) / Fold change /veh IL23R (11748794_a_at) / RFU TNFAIP8L3 (11732012_x_at) / Fold change /veh TNFAIP8L3 (11732012_x_at) / RFU MBOAT4 (11741988_at) / Fold change /veh MBOAT4 (11741988_at) / RFU 11764193_at / Fold change /veh 11764193_at / RFU TMEM53 (11763286_at) / Fold change /veh TMEM53 (11763286_at) / RFU MAGEB2 (11727129_at) / Fold change /veh MAGEB2 (11727129_at) / RFU TMEM200A (11744735_a_at) / Fold change /veh TMEM200A (11744735_a_at) / RFU CCDC152 (11751479_a_at) / Fold change /veh CCDC152 (11751479_a_at) / RFU FAM211A (11726209_a_at) / Fold change /veh FAM211A (11726209_a_at) / RFU RGS16 (11746705_a_at) / Fold change /veh RGS16 (11746705_a_at) / RFU VCAN (11755009_s_at) / Fold change /veh VCAN (11755009_s_at) / RFU RHOB (11743442_s_at) / Fold change /veh RHOB (11743442_s_at) / RFU RGS16 (11720943_a_at) / Fold change /veh RGS16 (11720943_a_at) / RFU RGS16 (11720944_at) / Fold change /veh RGS16 (11720944_at) / RFU, VPS4B / Fold change vs veh, VPS4B / RFU, CREB1 / Fold change vs veh, CREB1 / RFU, DNAJC13 / Fold change vs veh, DNAJC13 / RFU, GNAQ / Fold change vs veh, GNAQ / RFU, CDK5R1 / Fold change vs veh, CDK5R1 / RFU, ZRANB3 / Fold change vs veh, ZRANB3 / RFU, CUL4A / Fold change vs veh, CUL4A / RFU, CCNY / Fold change vs veh, CCNY / RFU, UFL1 / Fold change vs veh, UFL1 / RFU, COG3 / Fold change vs veh, COG3 / RFU, DIAPH2 / Fold change vs veh, DIAPH2 / RFU, SKA2 / Fold change vs veh, SKA2 / RFU, AFF3 / Fold change vs veh, AFF3 / RFU, LMF1 / Fold change vs veh, LMF1 / RFU, IPO11 / Fold change vs veh, IPO11 / RFU, DFFB / Fold change vs veh, DFFB / RFU, FOXP1 / Fold change vs veh, FOXP1 / RFU, CARD8 / Fold change vs veh, CARD8 / RFU, STRN3 / Fold change vs veh, STRN3 / RFU, ADK / Fold change vs veh, ADK / RFU, RASSF2 / Fold change vs veh, RASSF2 / RFU, WIPF1 / Fold change vs veh, WIPF1 / RFU, LARP1B / Fold change vs veh, LARP1B / RFU, RASA1 / Fold change vs veh, RASA1 / RFU, RB1 / Fold change vs veh, RB1 / RFU, PPFIA1 / Fold change vs veh, PPFIA1 / RFU, MAT2A / Fold change vs veh, MAT2A / RFU, CCT5 / Fold change vs veh, CCT5 / RFU, WDR92 / Fold change vs veh, WDR92 / RFU, CUX1 / Fold change vs veh, CUX1 / RFU, TTC7A / Fold change vs veh, TTC7A / RFU, TMEM135 / Fold change vs veh, TMEM135 / RFU, DEPTOR / Fold change vs veh, DEPTOR / RFU, CPM / Fold change vs veh, CPM / RFU, DNAJB6 / Fold change vs veh, DNAJB6 / RFU, CACNA2D3 / Fold change vs veh, CACNA2D3 / RFU, DTX4 / Fold change vs veh, DTX4 / RFU, TFCP2 / Fold change vs veh, TFCP2 / RFU, GMCL1 /// GMCL1P1 / Fold change vs veh, GMCL1 /// GMCL1P1 / RFU, AEBP2 / Fold change vs veh, AEBP2 / RFU, SNHG1 /// SNORD22 /// SNORD25 /// SNORD26 /// SNORD27 /// SNORD28 /// SNORD29 /// SNORD31 / Fold change vs veh, SNHG1 /// SNORD22 /// SNORD25 /// SNORD26 /// SNORD27 /// SNORD28 /// SNORD29 /// SNORD31 / Fold change (Aza/veh), C12orf56 (ProbeSet 11735607_a_at) / Fold change (ACY-1035/veh), C12orf56 (ProbeSet 11735607_a_at) / Fold change (Aza/veh), FGFR1OP (ProbeSet 11751329_s_at) / Fold change (ACY-1035/veh), FGFR1OP (ProbeSet 11751329_s_at) / Fold change (Aza/veh), VPS36 (ProbeSet 11739960_a_at) / Fold change (ACY-1035/veh), VPS36 (ProbeSet 11739960_a_at) / RFU SYPL1 (11715823_x_at) / Fold change /veh SYPL1 (11715823_x_at) / RFU IGFBP7 (11715501_s_at) / Fold change /veh IGFBP7 (11715501_s_at) / RFU REEP3 (11722064_at) / Fold change /veh REEP3 (11722064_at) / RFU IGLL1 (11728026_x_at) / Fold change /veh IGLL1 (11728026_x_at): dose or concentration left out as unconfirmed
Conditions: ProbeSet 11753234_a_at; LIST B

SMILES: Nc1ncn([C@@H]2O[C@H](CO)[C@@H](O)[C@H]2O)c(=O)n1 [azacitidine]
- RFU, TAMM41: 52.96 RFU
